Source: patent US8039670B2, “Analogs of alpha galactosyceramide and uses thereof” (Ludwig Institute for Cancer Research, priority 2005, dated 2011)

Assays:
[1] = test system: IL-12p40 released by the DC; experiment: IL-12p40 ELISA of supernatants of DC/iNKT co-cultures; format: cell-based, human; details: DC/iNKT co-culture, 24 hours
Protocol: (§1) Different analogs of α-GalCer as indicated or LPS were added to co-cultures of human DC and iNKT cells. (A) Maturation of the DC was assessed after 40 h, gating on CD11c positive cells. Histograms indicate the CD83 and CD86 profiles of DC from different treatments; the percentages indicate the percentage of CD83hi mature DC and the numbers in parenthesis, the mean fluorescence intensity of the population contained within the labeled gate. DC and iNKT cells were co-cultured in the presence of different analogs of α-GalCer for 24 hours. Supernatants were analyzed using ELISA for the presence of (B) IL-12p40 released by the DC and (C) IFN-γ from the iNKT cells. […] Cells were co-cultured in the presence of the indicated concentration of analog and the percentages of DC with increased CD83/CD80 are shown. […] Viability of α-GalCer or analog-pulsed DC was assessed after 40 h co-culture in the presence of iNKT cells by flow cytometry. Cells were stained with propidium iodide and the percentage of live CD11c gated cells remaining in the culture are shown.
(§2) Human monocyte-derived DC were pulsed with 150 ng of different inositol analogs and co-cultured with iNKT cells for 24 h. […] Numbers indicate the mean fluorescence intensity of the histogram gated on CD11c^+ cells.
Release of IL-12p40 (and bioactive p75) by DC is a marker of activation and is thought to play an important role in regulating the profile of the immune response generated in response to those DC (Trinchieri et al, Nat Rev Immunol, 2003, 3; 133-46).

IL-4 and IFN-γ = experiment: Serum cytokines after i.v. injection into mice (ELISA); format: in vivo, C57BL/6 mice; details: for cytokine release in serum (IL-4, IFN-γ, IL-12p40/70): wild type mice, 1 μg i.v., 2, 6 and 18-24 h
Protocol: C57BL/6 or iNKT^−/− mice were injected i.v. with 1 μg of vehicle, α-GalCer, analog or 25 μg MPL. Twenty hours after injection splenocytes were stained with antibodies against CD11c, B220 and CD86 and analyzed by flow cytometry. (A) Maturation was assessed by the upregulation of CD86 at the cell surface, gating on DC (CD11c^+). Mean fluorescence intensity for each histogram is indicated. These are representative profiles of two independent experiments. 2, 6 and 18-24 h after injection as described, the mice were bled and the serum tested with ELISA for the presence of (B) IL-4 and (C) IFN-γ released in response to the analog.
Stimulation of iNKT cells by α-GalCer in the context of CD1d rapidly induces release of significant levels of a number of cytokines including IFN-γ and IL-4 (Burdin, Brossay et al, J Immunol, 1998, 161; 3271-81), IL-3 and GM-CSF (Leite-de-Moraes, Lisbonne et al, Eur J Immunol, 2002, 32; 1897-904) with other downstream cell-types including DC (Kitamura, Iwakabe et al, J Exp Med, 1999, 189; 1121-8) and NK cells (Carnaud, Lee et al, J Immunol, 1999, 163; 4647-50) being activated.

[2] = test system: DCs obtained from the spleen; experiment: Example E: phenotyping of spleen DCs after tail vein injection (CD86); format: in vivo, mice; details: 1 μg tail vein, 24 h
Protocol: In brief, in each experiment, 1 μg of one of a selection of compounds of the invention was injected into the tail vein of subject mice. 24 h later spleen tissue was removed from the animals and gently teased through gauze into complete medium, supplemented with 5 mM of EDTA. Cells were enriched for CD11c by anti-CD11, magnetic beads using published techniques. Once enriched, they were assayed for maturation markers using antibody staining and flow cytometry. Non-specific staining was addressed by using an antibody specific for the Fc-RIII/II receptor.

OVA specific response = experiment: Example C: OVA specific CTL response in mice injected with OVA and compound (tetramer); format: in vivo; details: for OVA specific response: 400 μg OVA with 1 μg compound i.v.; for CTL response with MPL coinjected: coinjected with 25 μg MPL
Protocol: Subject animals, five mice per group, received an intravenous injection of 400 μg of ovalbumin (OVA) together with 1 μg of one of the compounds of the invention under examination or an equivalent volume of PBS diluted vehicle solution. A subset of mice were injected with 25 μg of the molecule MPL (Sigma-Aldrich; extracted from Salmonella Minnesota) solubilized in PBS.
Following the injections, blood was obtained from lateral tail veins, and PBLs were isolated, using standard methods. The PBLs were then stained, directly, […], with tetrameric, H-2 Kb/OVA 257-264, H-21 Kb complexes, following Palmowski, et al., J. Immunol., 168:4391-4398 (2002), incorporated by reference. The tetramers were prepared in accordance with Whilan, et al., J. Immunol., 163:4342-4348 (1999), incorporated by reference.

[3] = test system: OVA specific IgG antibodies; experiment: Example D: OVA specific IgG antibodies in serum of immunized mice (ELISA); format: in vivo; details: ten days following immunization
Protocol: OVA protein coated ELISA plates, were prepared, using well known methods. Then, blood samples were taken, ten days following immunization, and serum was prepared.
The samples were taken from mice that had been immunized with OVA only, OVA and Compound 1, arabinitol ceramide, OVA and αGal-Cer, or OVA and Compound 2, glycerol ceramide. Additionally, mice were immunized with each of these schedules with MPL added. Serum IgG titers were measured by adding serial dilutions of mouse serum were detected using horseradish peroxidase (HRP) conjugated α-mouse IgG.

[4] = test system: antigen-specific CD8^+ T cells; experiment: OVA-specific CD8+ T cells after co-injection with OVA ([…]-Kb tetramer); format: in vivo, C57BL/6 mice; details: 1 μg with 800 μg OVA, 6 days
Protocol: (A) C57BL/6 mice were co-injected with 1 μg α-GalCer or analog and 800 μg OVA. 6 days later blood samples taken from the tail vein were stained directly ex vivo with fluorescent […]-K^b tetramers and an anti-CD8 antibody and analyzed by flow cytometry. Data are shown as tetramer positive cells as a percentage of CD8^+ cells. (B) 7 days after injection, the mice were challenged in a prophylactic setting with 1×10^6 E.G7-OVA tumour cells s.c. and the size of the tumour monitored over subsequent days.
Previously we, and others have shown that co-injection of model antigens such as OVA (Silk, Hermans et al, J Clin Invest, 2004, 114; 1800-11, Fujii, Shimizu et al, J Exp Med, 2003, 198; 267-79, Hermans, Silk et al, J Immunol, 2003, 171; 5140-7) and β-galactosidase (Silk, Hermans et al, J Clin Invest, 2004, 114; 1800-11) together with α-GalCer induces enhanced CD8^+, CD4^+ T cell and B cell responses. These were effective for therapy against tumour cells expressing the target antigen. The various analogs were co-injected with OVA into wild type mice and 6 days later the blood examined for the presence of antigen-specific CD8^+ T cells using fluorescent K^b-[…] tetramers.

[5] = test system: IFN-γ from the iNKT cells; experiment: IFN-γ ELISA of supernatants of DC/iNKT co-cultures; format: cell-based, human; details: analogs presented by DC
Protocol: as §1, §2

With `CCCCCCCCCCCCCCCCCCCCCCCCCC(=O)N[C@@H](COC[C@@H](O)CO)[C@H](O)[C@H](O)CCCCCCCCCCCCCC` [Compound 2, Glycerol Ceramide] the “IL-12p40 level relative to that seen with α-GalCer” value [1] was “approximately 50%”, the “cytokine release in serum (IL-4, IFN-γ, IL-12p40/70)” value (IL-4 and IFN-γ) was “did not induce any detectable cytokine release” and the “induction of CD86 on spleen DC in vivo” value [2] was “induced CD86 in vivo similarly”. For the same compound, the OVA specific response (OVA specific response) was “Enhancement was weakest”, the “OVA specific antibody response, adjuvant effect compared with MPL” value [3] was “less effective than MPL whilst still producing OVA specific antibodies” and the “antigen-specific CD8+ T cell response” value [4] was “did not”. For the same compound, the “IFN-γ released by the iNKT cells” value [5] was roughly 20 ng/mL.
`CCCCCCCCCCCCCCCCCCCCCCCCCC(=O)N[C@@H](COC[C@H](O)[C@@H](O)CO)[C@H](O)[C@H](O)CCCCCCCCCCCCCC` [Compound 3, Threitol Ceramide] was tested, and the “IL-12p40 level relative to that seen with α-GalCer” value [1] was “approximately 50%”, the “skewing of cytokine response to Th2” value (IL-4 and IFN-γ; compared with OCH) was “Neither compound showed a skewed Th2 cytokine response” and the “potency of cytokine induction compared with α-GalCer” value (IL-4 and IFN-γ; equivalent doses) was “less potent than α-GalCer at equivalent doses”. For the same compound, the “cytokine release in serum (IL-4, IFN-γ, IL-12p40/70)” value (IL-4 and IFN-γ) was “detected in the serum with a similar time-course to that seen with α-GalCer”, the “induction of CD86 on spleen DC in vivo” value [2] was “did not induce the DC86 marker significantly” and the OVA specific response (OVA specific response) was “enhancement of the OVA specific response”. The “CTL response with MPL coinjected” value (OVA specific response) was “enhancement of the CTL response”, the “antigen-specific CD8+ T cell response” value [4] was “induced a significant CD8^+ T cell response after 6 days, although less potently than α-GalCer” and the “IFN-γ released by the iNKT cells” value [5] was roughly 20 ng/mL.
With `CCCCCCCCCCCCCCCCCCCCCCCCCC(=O)N[C@@H](CO[C@H]1OC(CO)[C@H](O)C(O)C1O)[C@H](O)[C@H](O)CCCCCCCCCCCCCC` (stereo partly drawn) [α-GalCer, α galactosylceramide, reference compound] the IL-12p40 released [1] was “significant levels of IL-12p40”, the “induction of CD86 on spleen DC in vivo” value [2] was “induced CD86 in vivo similarly” and the OVA specific response (OVA specific response) was “enhancement of the OVA specific response”. For the same compound, the “CTL response with MPL coinjected” value (OVA specific response) was “enhancement of the CTL response”, the “OVA specific antibody response, adjuvant effect compared with MPL” value [3] was “more effective as adjuvants than MPL” and the “IFN-γ released by the iNKT cells” value [5] was “approximately 40 ng/ml”.
